The results in this text go back to patent publication US12509459B2, “Inhibitors of NLRP3 inflammasome” (BioAge Labs, Inc., priority 2024, dated 2025).

Structures are written as SMILES.

The target in test [1] is T1, NLRP3 (Homo sapiens, UniProt Q96P20). As to the kind of experiment: Cryo-EM NLRP3 epitope determination. The class given is binding. The arrangement: made in house; host or cells: Sf9 insect cells (baculovirus). Conditions: cryo-EM of NLRP3·Compound 007 complex, 3.00 Å resolution, FIG. 1. An excerpt: Compound 007 of the disclosure was used as an exemplary compound for determining the epitope to NLRP3, using cryogenic electron microscopy (cryo-EM).
Full length, human NLRP3 (3-1036, UniProt accession code Q96P20), codon-optimized for Spodoptera frugiperda, was cloned in an in-house modified pACE-Bac1 vector containing an N-terminal MBP-tag, followed by a Tobacco etch virus (TEV) protease cleavage site. For recombinant protein expression of MBP-NLRP3, 1 L of Sf9 insect cells were infected with 3% v/v viral stock of the second virus passage. The expression culture was incubated for 72 h at 27° C. and 80 rpm, and was subsequently harvested by centrifugation at 2000 rpm for 20 min. […] Elution fractions were analyzed by SDS-PAGE and negative stain electron microscopy (EM), before they were plunge frozen for cryo-EM analysis.
The purified NLRP3·Compound 007 complex was applied onto glow-discharged EM-grids (Quantifoil Cu300 R2/1+2 nm carbon support film), incubated for 30s at 100% humidity and 4° C., before it was blotted for 5s with blot force 5 and plunge frozen into liquid ethane using a Vitrobot mark IV plunge freezing device (Thermo Fisher Scientific). […] Using the blob picker, 3,114,152 particles were picked and detected of which 2,058,399 were extracted (search particle diameter […], 588 box size), of which 559,748 particles remained after multiple rounds of 2D classification. […]
Target sequence in this assay (Q96P20 3-1036): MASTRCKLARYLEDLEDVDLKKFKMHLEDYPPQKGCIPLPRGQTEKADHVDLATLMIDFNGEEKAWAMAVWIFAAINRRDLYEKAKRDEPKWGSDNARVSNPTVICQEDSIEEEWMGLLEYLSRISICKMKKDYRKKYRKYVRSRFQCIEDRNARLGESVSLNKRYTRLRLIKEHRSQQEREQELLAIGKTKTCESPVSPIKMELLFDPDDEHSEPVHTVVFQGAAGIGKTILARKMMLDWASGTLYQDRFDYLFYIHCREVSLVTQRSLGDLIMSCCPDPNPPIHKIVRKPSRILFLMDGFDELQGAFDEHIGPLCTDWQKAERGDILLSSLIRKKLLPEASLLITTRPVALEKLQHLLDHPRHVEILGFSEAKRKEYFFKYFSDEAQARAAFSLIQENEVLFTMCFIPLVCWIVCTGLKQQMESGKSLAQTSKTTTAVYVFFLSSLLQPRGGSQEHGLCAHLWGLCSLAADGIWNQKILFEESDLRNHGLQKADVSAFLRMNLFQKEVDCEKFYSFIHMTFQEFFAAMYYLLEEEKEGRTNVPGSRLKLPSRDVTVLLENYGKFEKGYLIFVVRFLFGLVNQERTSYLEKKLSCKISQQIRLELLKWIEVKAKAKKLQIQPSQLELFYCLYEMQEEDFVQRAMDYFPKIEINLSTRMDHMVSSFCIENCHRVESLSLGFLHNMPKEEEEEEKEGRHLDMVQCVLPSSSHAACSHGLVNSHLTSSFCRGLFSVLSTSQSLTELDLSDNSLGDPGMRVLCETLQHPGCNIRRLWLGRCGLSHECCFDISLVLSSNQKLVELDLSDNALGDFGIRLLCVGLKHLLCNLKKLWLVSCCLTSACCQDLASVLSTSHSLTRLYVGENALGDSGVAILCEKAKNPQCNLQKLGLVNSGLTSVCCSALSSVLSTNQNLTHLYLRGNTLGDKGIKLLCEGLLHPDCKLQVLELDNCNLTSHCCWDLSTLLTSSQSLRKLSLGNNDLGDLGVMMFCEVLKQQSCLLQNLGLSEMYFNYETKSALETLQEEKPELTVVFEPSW

In test [2] the target is T1, NLRP3. Put plainly: THP-1 cell-based NLRP3 activation assay. The settings on record: PMA-differentiated THP-1 cells, LPS 100 ng/mL then 10 μM nigericin. Further details: endogenous in cells; host or cells: THP-1 cells (PMA-differentiated, LPS-primed, nigericin-stimulated). Put shortly:
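After 30 min compound preincubation, inflammasome activation was triggered with 10 μM nigericin (1 h) in LPS-primed (100 ng/mL, 3 h) THP-1 cells differentiated with PMA at 20 nM/24 h or 500 nM/3 h. CellTiter-Glo measured residual cell viability.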
Target sequence in this assay (Q96P20 whole entry): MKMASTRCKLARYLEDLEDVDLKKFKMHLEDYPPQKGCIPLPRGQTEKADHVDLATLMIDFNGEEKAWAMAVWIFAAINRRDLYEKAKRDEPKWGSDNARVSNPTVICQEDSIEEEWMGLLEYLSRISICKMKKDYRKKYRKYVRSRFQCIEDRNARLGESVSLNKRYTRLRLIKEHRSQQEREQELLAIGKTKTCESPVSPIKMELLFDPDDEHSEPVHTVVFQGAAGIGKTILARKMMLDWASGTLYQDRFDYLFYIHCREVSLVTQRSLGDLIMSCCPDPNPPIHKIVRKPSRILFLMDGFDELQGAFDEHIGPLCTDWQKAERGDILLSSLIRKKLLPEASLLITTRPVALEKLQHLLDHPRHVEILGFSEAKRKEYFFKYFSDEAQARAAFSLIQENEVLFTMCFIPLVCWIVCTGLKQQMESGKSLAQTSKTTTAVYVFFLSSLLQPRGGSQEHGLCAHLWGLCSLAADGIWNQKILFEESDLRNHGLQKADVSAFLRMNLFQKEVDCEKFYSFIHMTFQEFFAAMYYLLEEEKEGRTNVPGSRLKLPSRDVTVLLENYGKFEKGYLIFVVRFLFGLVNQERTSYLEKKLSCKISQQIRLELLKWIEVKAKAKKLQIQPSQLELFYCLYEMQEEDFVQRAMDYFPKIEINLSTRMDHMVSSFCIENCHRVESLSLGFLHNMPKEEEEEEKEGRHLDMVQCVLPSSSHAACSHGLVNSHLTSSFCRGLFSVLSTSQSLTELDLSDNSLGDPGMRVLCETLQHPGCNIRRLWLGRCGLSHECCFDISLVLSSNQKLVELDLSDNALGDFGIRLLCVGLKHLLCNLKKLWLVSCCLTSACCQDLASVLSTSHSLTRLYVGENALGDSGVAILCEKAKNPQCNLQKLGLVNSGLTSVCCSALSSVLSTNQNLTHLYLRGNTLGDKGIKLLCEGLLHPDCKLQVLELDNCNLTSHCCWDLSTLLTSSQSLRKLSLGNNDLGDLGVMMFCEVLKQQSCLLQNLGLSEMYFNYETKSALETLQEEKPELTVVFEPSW

Another test has as its system DIO mice. As to the kind of experiment: Diet-induced obesity (DIO) mouse model. Conditions: for body weight of high fat DIO mice / food consumption of high fat DIO mice: summary, comparable to the effect of Semaglutide. It counts as in vivo.
The subject of another test is foot gout mouse model. As to the kind of experiment: Foot gout mouse model. It counts as in vivo. The settings on record: for swelling: FIG. 16 and FIG. 17.
Setting [3] is: DIO mice, 5 to 100/75 mpk QD PO, FIG. 10.
Where [4] appears, read: DIO mice, 100/75 mpk, po, qd (75 mpk since day 9).
The mark [5] stands for this setting: DIO mice, doses of 50 mpk or higher, FIG. 11.
The mark [6] stands for this setting: DIO mice, doses of 50 mpk or higher, treatment for 4 weeks, FIG. 13.

On to `CCOc1cc(C(=O)N(C)[C@H](CCO)c2cncc3cn[nH]c23)ccc1-c1cccc(F)c1` [Compound 007], for which the “binding site on NLRP3” value on NLRP3 [1] was “binds in a pocket on the surface of the NACHT domain of NLRP3”. In addition, at NLRP3 [2], the IC50 was < 100 nM.
For `CCOc1cc(C(=O)N(C)[C@H](CCN(C)C)c2cncc3cn[nH]c23)ccc1-c1cccc(F)c1` [Compound 040], in the test with DIO mice (5 to 100/75 mpk QD PO, FIG. 8), the “body weight of DIO mice” value is listed as “dose-dependent effect on reducing body weight”. In the test with DIO mice (DIO mice, 5 mpk, po, qd), the “Day 28 BW % change vs. DIO/VEH” value was 0.6% and the “Day 28 BW % change vs. baseline” value is reported as 4.6%. Besides, the food consumption entry with DIO mice (DIO mice, 5 to 100/75 mpk QD PO, FIG. 9) is listed as “dose-dependent effect on reducing food consumption”. Moreover, in the test with DIO mice (setting [3]), the “fat mass to body weight percentage” value was “dose-dependent effect on reducing fat mass to body weight percentage” and the “lean mass to body weight percentage” value is “maintaining lean mass to body weight percentage”. In the test on DIO mice (DIO mice, 20 mpk, po, qd), the “Day 28 BW % change vs. DIO/VEH” value is reported as −2.7% and the “Day 28 BW % change vs. baseline” value was 1.3%. In the test with DIO mice (DIO mice, 50 mpk, po, qd), the “Day 28 BW % change vs. DIO/VEH” value is reported as −11.6% and the “Day 28 BW % change vs. baseline” value is recorded as −7.6%. Besides, in the test with DIO mice (setting [4]), the “Day 28 BW % change vs. DIO/VEH” value is −22.0% and the “Day 28 BW % change vs. baseline” value was −17.9%. Further, in the test with DIO mice (DIO mice, compared with Semaglutide treated mice, FIG. 13), the “inguinal fat to body weight percentage or muscle tissues to body weight percentage” value is given as “no significant difference from Semaglutide treated mice”. In addition, in the test on DIO mice (setting [5]), the fasting glucose result is on record as “significantly reduced fasting glucose” and the insulin sensitivity entry was “improved insulin sensitivity”. Also, in the test on DIO mice (setting [6]), the inguinal fat weight result was “significantly reduced” and the liver weight result was “significantly reduced”. Further, in the test on DIO mice, the “body weight of high fat DIO mice” value is given as “significantly reduced” and the “food consumption of high fat DIO mice” value is “significantly reduced”. Also, the half-inhibitory concentration (IC50) against NLRP3 [2] is < 100 nM. In the test with foot gout mouse model, the “treatment mode in foot gout model” value was “can be used as both a preventative and therapeutic treatment”; the swelling entry is reported as “reduce swelling in a foot gout mouse model in a dose dependent manner”.
Turning to `CCOc1cc(C(=O)N(C)[C@H](CCN(C)C)c2cncc3cn[nH]c23)ccc1-c1ccccc1` [Compound 096], the “body weight of DIO mice” value with DIO mice (Compound 096/211 study, FIGS. 14A and 14B) is “dose-dependent effect on reducing body weight”. Besides, in the test with DIO mice (DIO mice, 50 mpk, po, qd), the “Day 14 BW % change vs. baseline” value is −11.9%. For the same compound, the food consumption entry in the test with DIO mice (DIO mice, Compound 096/211 study, FIG. 14) is “dose-dependent effect on reducing food consumption”. Further, the fat mass entry with DIO mice (DIO mice, Compound 096/211 study, FIG. 15) is on record as “caused a change in fat mass”. Also, in the test with DIO mice, the “body weight of high fat DIO mice” value was “significantly reduced” and the “food consumption of high fat DIO mice” value was “significantly reduced”. Also, the concentration for half-maximal inhibition (IC50) against NLRP3 [2] is < 100 nM. Moreover, in the test with foot gout mouse model, the swelling result was “reduce swelling in a foot gout mouse model in a dose dependent manner”.
